Experimental data as given in patent publication US8551718B2 (Suven Life Science Limited, priority 2009, dated 2013).
Like-named read-outs stand apart in the source and are kept apart here.

How the values were obtained:
5-HT2A receptor [1] = target: T1, 5-HT2A receptor (Homo sapiens, UniProt P28223); experiment: Radioligand (SPA) competition binding assay, [3H]Ketanserin; conditions: for Binding to 5-HT2A receptor (in words): radioligand binding assay using SPA beads
[2] = target: T2, adrenergic alpha1b receptor (Homo sapiens, UniProt P35368); experiment: Radioligand (SPA) competition binding assay, [3H]Prazosin; conditions: for Binding to alpha1b receptor (in words): radioligand binding assay using SPA beads
T2 sequence (P35368 1-520): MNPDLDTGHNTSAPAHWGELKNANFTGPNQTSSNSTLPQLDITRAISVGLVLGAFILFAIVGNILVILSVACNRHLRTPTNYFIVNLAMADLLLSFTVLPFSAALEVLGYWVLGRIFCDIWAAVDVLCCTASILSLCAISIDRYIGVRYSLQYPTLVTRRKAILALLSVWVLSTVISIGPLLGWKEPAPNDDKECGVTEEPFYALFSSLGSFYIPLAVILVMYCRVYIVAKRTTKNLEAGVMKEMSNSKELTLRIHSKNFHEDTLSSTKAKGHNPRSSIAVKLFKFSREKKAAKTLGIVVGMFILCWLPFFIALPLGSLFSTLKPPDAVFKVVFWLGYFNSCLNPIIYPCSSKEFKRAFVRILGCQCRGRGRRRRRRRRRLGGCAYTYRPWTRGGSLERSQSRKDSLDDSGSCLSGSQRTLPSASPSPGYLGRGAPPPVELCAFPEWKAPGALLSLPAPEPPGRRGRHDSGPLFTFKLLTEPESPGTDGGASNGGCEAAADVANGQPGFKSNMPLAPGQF

5-HT2A receptor [3] = target: T1, 5-HT2A receptor; experiment: CRE-Luc reporter gene functional assay in CHO-5HT2A cells; type: cell-based; set-up: expressed in transfected cells; host or cells: CHO cells (CHO-5HT2A), co-transfected with CRE-Luc reporter; conditions: for Dose response induction of luciferase activity (in words): up to the highest dose tested; for Antagonism of serotonin induced luciferase activity (in words): compound 10 μM with 10 μM serotonin
histamine H1 receptor [4] = target: T3, histamine H1 receptor (Homo sapiens, UniProt P35367); conditions: for Blockade of histamine induced luciferase activity (in words): CHO-H1 cells, compound 10 μM with 10 μM histamine
[5] = target: T2, adrenergic alpha1b receptor; experiment: CRE-Luc reporter gene functional assay in CHO-α1b cells; type: cell-based; set-up: expressed in transfected cells; host or cells: CHO cells (CHO-α1b), co-transfected with CRE-Luc reporter; conditions: for EC50: agonist mode, luciferase activity; for Blockade of epinephrine induced luciferase activity (in words): compound 10 μM with 10 μM epinephrine
[6] = target: T4, human adrenergic alpha1b receptor (Mesocricetus auratus, UniProt P18841); conditions: CHO cells expressing human adrenergic alpha1b receptor, literature; cited from earlier work
T4 sequence (P18841 1-515): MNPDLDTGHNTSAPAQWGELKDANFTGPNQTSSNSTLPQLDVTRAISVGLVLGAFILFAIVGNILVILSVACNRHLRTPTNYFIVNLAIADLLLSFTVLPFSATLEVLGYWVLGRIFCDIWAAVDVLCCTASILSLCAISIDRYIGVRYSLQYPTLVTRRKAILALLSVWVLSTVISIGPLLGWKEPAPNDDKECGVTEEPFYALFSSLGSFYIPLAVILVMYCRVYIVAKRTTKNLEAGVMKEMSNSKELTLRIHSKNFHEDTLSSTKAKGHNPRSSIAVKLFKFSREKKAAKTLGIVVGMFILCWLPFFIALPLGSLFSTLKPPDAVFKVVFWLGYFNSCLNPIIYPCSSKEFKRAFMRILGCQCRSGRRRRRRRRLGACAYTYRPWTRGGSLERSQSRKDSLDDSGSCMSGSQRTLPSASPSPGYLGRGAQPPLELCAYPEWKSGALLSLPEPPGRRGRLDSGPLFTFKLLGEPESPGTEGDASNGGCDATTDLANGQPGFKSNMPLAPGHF

histamine H1 receptor [7] = target: T3, histamine H1 receptor; conditions: radioligand binding assay using SPA beads
histamine H1 receptor [8] = target: T3, histamine H1 receptor; experiment: biochemical
histamine H1 receptor [9] = target: T3, histamine H1 receptor; experiment: cell-based

T3 sequence (P35367 whole entry): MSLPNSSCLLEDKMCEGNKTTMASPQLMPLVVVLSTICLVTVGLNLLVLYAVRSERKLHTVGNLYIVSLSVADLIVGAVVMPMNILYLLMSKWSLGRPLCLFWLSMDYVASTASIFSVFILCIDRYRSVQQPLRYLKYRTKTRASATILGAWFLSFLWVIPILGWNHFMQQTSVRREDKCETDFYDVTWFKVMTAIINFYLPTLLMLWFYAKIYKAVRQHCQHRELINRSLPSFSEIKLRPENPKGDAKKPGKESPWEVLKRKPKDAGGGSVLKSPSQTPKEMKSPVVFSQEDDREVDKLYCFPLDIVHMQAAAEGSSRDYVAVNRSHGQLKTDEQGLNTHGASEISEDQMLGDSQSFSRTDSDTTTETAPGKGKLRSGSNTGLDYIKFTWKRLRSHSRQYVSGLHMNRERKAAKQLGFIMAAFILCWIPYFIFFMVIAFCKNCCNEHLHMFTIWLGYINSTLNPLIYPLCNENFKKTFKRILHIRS
T1 sequence (P28223 whole entry): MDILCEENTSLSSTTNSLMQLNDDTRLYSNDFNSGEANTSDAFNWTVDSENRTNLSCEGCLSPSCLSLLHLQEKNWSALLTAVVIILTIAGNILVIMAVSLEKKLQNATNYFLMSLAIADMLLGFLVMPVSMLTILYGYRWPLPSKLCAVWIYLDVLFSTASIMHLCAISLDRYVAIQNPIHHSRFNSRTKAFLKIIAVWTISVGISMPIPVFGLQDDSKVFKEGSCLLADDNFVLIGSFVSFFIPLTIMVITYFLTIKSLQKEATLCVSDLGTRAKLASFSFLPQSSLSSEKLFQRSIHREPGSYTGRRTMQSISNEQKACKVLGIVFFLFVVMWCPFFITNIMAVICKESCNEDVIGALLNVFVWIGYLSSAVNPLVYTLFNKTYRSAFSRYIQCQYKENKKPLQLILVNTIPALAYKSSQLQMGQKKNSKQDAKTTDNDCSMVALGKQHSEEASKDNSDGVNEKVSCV

NCCc1c[nH]cn1 [Histamine]
Ki (5-HT2A receptor [1]): > 10 µM | Binding to 5-HT2A receptor (in words) (5-HT2A receptor [1]): did not show any binding | Ki [2]: > 10 µM | Binding to alpha1b receptor (in words) [2]: did not show any binding | EC50 (5-HT2A receptor [3]; agonist mode, luciferase activity, 0.1 nM to 10,000 nM): > 10 µM | Dose response induction of luciferase activity (in words) (5-HT2A receptor [3]): did not show the induction of luciferase activity | Dose response induction of luciferase activity (in words) (histamine H1 receptor [4]): dose proportionate increase in luciferase activity | Dose response induction of luciferase activity (in words) ([5]; CHO-α1b cells, 0.1 to 10000 nM): did not respond | EC50 ([5]; CHO-α1b cells, 0.1 to 10000 nM): > 10 µM

O=C(c1ccc(F)cc1)C1CCN(CCn2c(=O)[nH]c3ccccc3c2=O)CC1 [Ketanserin]
Ki [2]: […] | Antagonism of serotonin induced luciferase activity (in words) (5-HT2A receptor [3]): fully antagonized | IC50 [5]: […] | Kb [5]: […] | Blockade of epinephrine induced luciferase activity (in words) ([5]; CHO-α1b cells): […]

NC[C@H](O)c1ccc(O)c(O)c1 [norepinephrine]
pEC50 for cAMP accumulation [6]: 6.6

O=C(O)COCCN1CCN(C(c2ccccc2)c2ccc(Cl)cc2)CC1 (centres unmarked) [Cetirizine]
Binding to 5-HT2A receptor (in words) (5-HT2A receptor [1]): no affinity | Ki [2]: > 10 µM | Antagonism of serotonin induced luciferase activity (in words) (5-HT2A receptor [3]): did not show any impact | Antagonism of serotonin induced luciferase activity, dose response study (in words) (5-HT2A receptor [3]; compound 0.1 to 10,000 nM with 10 μM serotonin): none or partial antagonism | Blockade of histamine induced luciferase activity (in words) (histamine H1 receptor [4]): inverse agonist property | Blockade of histamine induced luciferase activity (in words) (histamine H1 receptor [4]; listed as cetirizine): completely blocked | IC50 [5]: > 10 µM | Kb [5]: > 10 µM | Antagonism of epinephrine induced luciferase activity, dose response study (in words) ([5]; CHO-α1b cells): did not show any antagonism | Blockade of epinephrine induced luciferase activity (in words) ([5]; CHO-α1b cells): did not show any effect | Binding to H1 receptor (in words) (histamine H1 receptor [7]): no affinity

NCCc1c[nH]c2ccc(O)cc12 [Serotonin]
Ki [2]: > 10 µM | Binding to alpha1b receptor (in words) [2]: did not show any binding | Dose response induction of luciferase activity (in words) (5-HT2A receptor [3]): specific dose response effect | EC50 ([5]; CHO-α1b cells, 0.1 to 10000 nM): > 10 µM | Ki (histamine H1 receptor [8]): > 10 µM | EC50 (histamine H1 receptor [9]): > 10 µM | Binding to H1 receptor (in words) (histamine H1 receptor [7]): did not show any binding

CN(C)CCCN1c2ccccc2Sc2ccc(Cl)cc21 [Chlorpromazine]
Kb [5]: 0.000501 µM | Blockade of epinephrine induced luciferase activity (in words) ([5]; CHO-α1b cells): completely blocked
